Results: patent EP4806890A1, “CRYSTALLINE COMPOUND OR BASIC SALT THEREOF, PREPARATION METHOD THEREFOR, AND USE THEREOF” (Abbisko Therapeutics Co., Ltd., priority 2023, dated 2025)

Experiments:
[1] = Later pharmaceutical research on the trifluoroacetate freeze-dried amorphous compound of WO2019149183A1 (solid-state properties); format: physicochemical
[2] = system: T cells; conditions: statement of the background, WO2019149183A1; cited from earlier work
[3] = target: PD-1/PD-L1 (Homo sapiens, UniProt Q9NZQ7); conditions: statement of the background, WO2019149183A1; cited from earlier work
[4] = Hygroscopic behavior test by dynamic vapor sorption (DVS); format: physicochemical; conditions: for hygroscopicity (in words): DVS, 25 °C
Excerpt: The experimental method of characterizing the crystalline free form of the compound of formula (I) or the basic salt thereof using dynamic vapor sorption (DVS) is as follows: a small amount of the crystalline sample was placed in a precision sample tray that was compatible with the instrument; after the sample was loaded, the sample tray was placed into the instrument for analysis. In this patent, the instruments used for dynamic vapor sorption were all the DVS Intrinsic plus model, and the following experimental parameters were set: nitrogen was used as the carrier gas, a constant temperature of 25 °C was set, the rate of mass percentage change over a unit of time (dm/dt) = 0.002%/min was used as a criterion for determining if equilibrium is reached, and the program humidity change cycle was set to 50-95-0-95-50% RH; within the range of 0-90% RH, a change of 10% RH was taken as a step, and within the range of 90% RH-95% RH, a change of 5% RH was taken as a step.
In the present invention, the hygroscopic weight increases (hygroscopic weight increase/weight before hygroscopy * 100%) of various crystalline forms under various relative humidity conditions were determined using the dynamic vapor sorption method, and the hygroscopicity of different crystalline compounds was evaluated.

[5] = Stability determination (thermal stability and photostability, HPLC purity, appearance, XRPD); format: physicochemical; conditions: for XRPD: crystalline form found
Method: (§1) The stability and solubility of the crystalline free form of the compound of formula (I) or the basic salt thereof of the present application were determined by HPLC.
An appropriate amount of the sample was placed in a vial and left to stand at 50 °C, 80 °C or 50 °C & 75% RH (open) for 7 days to evaluate thermal stability. An appropriate amount of the sample was placed in a transparent vial, […] evaluation under conditions of overall near-ultraviolet energy of 1.2 * 10^6 Lux·hr and no less than 200 W·hr/m2.

[6] = Solubility determination (equilibrium solubility, 24 hrs stirring at room temperature, HPLC); format: physicochemical; conditions: for Equilibrium solubility: target concentration 2000 µg/mL, 24 hrs; for pH24 hrs: pH of the filtrate after 24 hrs
Method: as §1
The desired amount of the compound was weighed into a glass vial, and the desired amount of a vehicle was added. A stir bar was added to the vial, and the mixture was stirred at room temperature for 24 hrs. After 24 hrs, the appearance of the sample was observed. An appropriate amount of the sample was filtered through a PVDF 0.45 µm filter membrane, and the filtrate was collected. The pH value of the filtrate was determined, and the sample was diluted with MeOH. The diluted sample was injected into an HPLC system to determine the concentration.

[7] = Aluminum foil light exposure control, 9.2 days
[8] = Transparent light exposure, 9.2 days
[9] = pH 4.7, 50 mM acetic acid buffer
[10] = pH 6.8, 50 mM phosphoric acid buffer

PD-1/PD-L1, sequence (Q9NZQ7 19-238 limits assumed): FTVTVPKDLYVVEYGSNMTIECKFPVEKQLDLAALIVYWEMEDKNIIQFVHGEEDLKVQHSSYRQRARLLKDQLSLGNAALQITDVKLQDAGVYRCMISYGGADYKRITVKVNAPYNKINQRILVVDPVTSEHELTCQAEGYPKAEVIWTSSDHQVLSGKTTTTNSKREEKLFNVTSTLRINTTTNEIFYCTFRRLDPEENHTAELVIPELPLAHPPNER

Cc1c(NC(=O)c2cc(C3CC3)c(CN3CCCC[C@H]3C(=O)O)cn2)cccc1-c1cccc(NC(=O)c2cc(C3CC3)c(CN3CCCC[C@H]3C(=O)O)cn2)c1C [compound of formula (I), (2S,2'S)-1,1'-(((((2,2'-dimethyl-[1,1'-biphenyl]-3,3'-diyl)bis(azanediyl))bis(carbonyl))bis(4-cyclopropylpyridine-6,3-diyl))bis(methylene))bis(piperidine-2-carboxylic acid)]
hygroscopicity (in words) [1]: very hygroscopic | solubility (in words) [1]: poor solubility | activation of T cells at the cellular level [2]: enhance or restore the activation of T cells | inhibitory effect on the protein interaction of PD-1/PD-L1 [3]: strong inhibitory effect

Cc1c(NC(=O)c2cc(C3CC3)c(CN3CCCC[C@H]3C(=O)O)cn2)cccc1-c1cccc(NC(=O)c2cc(C3CC3)c(CN3CCCC[C@H]3C(=O)O)cn2)c1C [free-form crystalline form F, (2S,2'S)-1,1'-(((((2,2'-dimethyl-[1,1'-biphenyl]-3,3'-diyl)bis(azanediyl))bis(carbonyl))bis(4-cyclopropylpyridine-6,3-diyl))bis(methylene))bis(piperidine-2-carboxylic acid)]
hygroscopicity (in words) [4]: moderate hygroscopicity | hygroscopicity (in words) ([4]; listed as crystalline form F): moderately hygroscopic | Hygroscopic weight increase (%) ([4]; Relative humidity 0.0 % at 25 °C): 0.00% | Hygroscopic weight increase (%) ([4]; Relative humidity 10.0 % at 25 °C): 0.18% | Hygroscopic weight increase (%) ([4]; Relative humidity 20.0 % at 25 °C): 0.38% | Hygroscopic weight increase (%) ([4]; Relative humidity 30.0 % at 25 °C): 0.60% | Hygroscopic weight increase (%) ([4]; Relative humidity 40.0 % at 25 °C): 0.84% | Hygroscopic weight increase (%) ([4]; Relative humidity 50.0 % at 25 °C): 1.14% | Hygroscopic weight increase (%) ([4]; Relative humidity 60.0 % at 25 °C): 1.54% | Hygroscopic weight increase (%) ([4]; Relative humidity 70.0 % at 25 °C): 2.04% | Hygroscopic weight increase (%) ([4]; Relative humidity 80.0 % at 25 °C): 2.55% | Hygroscopic weight increase (%) ([4]; Relative humidity 90.0 % at 25 °C): 3.28% | crystalline form changes after DVS testing ([4]; after DVS testing): no crystalline form changes | physical and chemical stability (in words) ([5]; 50 °C, 50 °C/75% RH (open), 80 °C for 7 days and photostress for 10 days): extremely high physical and chemical stability | Appearance ([5]; 50 °C, 11 days): White powder | Purity (%) ([5]; 50 °C, 11 days): 99.36% | Appearance ([5]; 50 °C/75%RH, 11 days): White powder | Purity (%) ([5]; 50 °C/75%RH, 11 days): 99.36% | Appearance ([5]; 80 °C, 11 days): White powder | Purity (%) ([5]; 80 °C, 11 days): 99.22% | Appearance [5, 7]: White powder | Purity (%) [5, 7]: 99.39% | Appearance ([5]; Initial, 0 days): White powder | Purity (%) ([5]; Initial, 0 days): 99.44% | Appearance [5, 8]: White powder | Purity (%) [5, 8]: 99.43% | XRPD ([5]; 50 °C, 11 days): Free-form crystalline form F | XRPD ([5]; 50 °C/75%RH, 11 days): Free-form crystalline form F | XRPD ([5]; 80 °C, 11 days): Free-form crystalline form F | XRPD [5, 7]: Free-form crystalline form F | XRPD ([5]; Initial, 0 days): Free-form crystalline form F | XRPD [5, 8]: Free-form crystalline form F | Equilibrium solubility ([6]; FaSSGF): 0.11715 mg/mL | Equilibrium solubility ([6]; FaSSIF): 0.30656 mg/mL | Equilibrium solubility ([6]; FeSSIF): 1.72316 mg/mL | Equilibrium solubility ([6]; Water, room temperature): 0.06947 mg/mL | Equilibrium solubility ([6]; pH 1.2, HCl 100 mM): 0.24449 mg/mL | Equilibrium solubility [6, 9]: 0.06733 mg/mL | Equilibrium solubility [6, 10]: 0.06101 mg/mL | pH24 hrs ([6]; FaSSGF): 1.58 | pH24 hrs ([6]; FaSSIF): 6.42 | pH24 hrs ([6]; FeSSIF): 4.99 | pH24 hrs ([6]; Water): 5.52 | pH24 hrs ([6]; pH 1.2, HCl 100 mM): 1.15 | pH24 hrs [6, 9]: 4.68 | pH24 hrs [6, 10]: 6.93 | solubility (in words) ([6]; various pH conditions, buffers and biological medium solutions): extremely significantly improved solubility
